Measurements from patent US10450615B2, “Methods and compositions for detecting gastrointestinal and other cancers” (Case Western Reserve University, priority 2003, dated 2019).

Tested on: vimentin gene expression in colon cancer cell lines
Experiment: RT-PCR of vimentin expression in colon cancer cell lines after 5-azacytidine treatment
Assay type: cell-based, human
Settings: FIG. 2, cell lines with vimentin DNA methylation, optimal tolerated doses ranging from 1 μg/ml to 3 μg/ml, reactivated in V400, V429, V503, RCA, V5, RKO, V432, V703, V457
Protocol: The cultures were grown and treated as described previously (Veigl, et al., 1998, Proc. Natl. Acad. Sci. USA, 95:8698-8702). The optimal tolerated doses were determined for each treated line, and two doses were used for some lines, ranging from 1 μg/ml to 3 μg/ml.
To establish that methylation was responsible for silencing vimentin gene expression, cell lines with vimentin DNA methylation were treated with 5-azacytidine (5-azaC), a demethylating agent.

## Nc1ncn([C@@H]2O[C@H](CO)[C@@H](O)[C@H]2O)c(=O)n1 [5-azaC, 5-azacytidine]
  colon cancer cell lines in which vimentin expression was reactivated (induced): 9 of 12
